# Earlier results, collected in patent US20120237592A1, “ENDOPLASMIC RETICULUM TARGETING LIPOSOMES” (priority 2008, published 2012).
# Legend:
# HBV = conditions: literature
# BVDV = conditions: literature
# HIV = conditions: literature
# HIV-1 = HIV-1 infected patients, literature
smiles,measurement,setting,value
"CCCCN1C[C@H](O)[C@@H](O)[C@H](O)[C@H]1CO [NB-DNJ, N-butyl-1,5-dideoxy-1,5-imino-D-glucitol]",secretion of HBV particles,HBV,suppresses secretion of HBV particles
same,infectivity of BVDV viral progeny,BVDV,decreased infectivity of viral progeny
same,infectious virus released from HIV-infected cells,HIV,greatly reduced
same,tolerability at concentrations necessary for antiviral activity,HIV-1,serious side-effects
